Consider 5 compounds from patent US11629171B2, “Beta-hairpin peptidomimetics” (POLYPHOR AG, priority 2017, dated 2023).

A word on the MIC: it is the lowest concentration found to suppress growth.

In brackets after ≈: the same amount, converted by molar mass. Where a SMILES comes first, the peptide text is derived from it. Bridges are numbered along the chain shown (N, C = ends). Roman numbers before positions name the chains, in order. [ ]: non-standard residue; d: D form. Thr(ol) = C[C@@H](O)[C@H](N)CO; Tle = CC(C)(C)[C@H](N)C(=O)O; Hiv = CC(C)[C@H](O)C(=O)O; dDab = NCC[C@@H](N)C(=O)O; Orn = NCCC[C@H](N)C(=O)O; Dab = NCC[C@H](N)C(=O)O; Abu = CC[C@H](N)C(=O)O; Dap = NC[C@H](N)C(=O)O

In one data set the test system is Escherichia coli 926415. It is filed as cell-based. Conditions: 926415. In a few lines: (§1)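 Broth microdilution per CLSI; MH-II (cation-adjusted) + 0.002% P-80 final; ~10^6 CFU/mL inoculum; 2-fold peptide series; 35° C, 18-20 h; MIC = no visible growth, μg/mL.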
For data set [1], the system named is Enterobacter cloacae 848840. It is filed as cell-based. Conditions: 848840. In a few lines: as §1
For data set [2], the system named is Klebsiella pneumoniae SSI #3010. Format: cell-based. Particulars: SSI #3010. An outline of the steps: as §1
Data set [3] concerns Klebsiella pneumoniae 968733. It is filed as cell-based. Conditions: 968733. In a few lines:
as §1

Data set [4] relates to Acinetobacter baumannii DSM 30008. Format: cell-based. Particulars: DSM 30008. An outline of the steps:
as §1

Data set [5] concerns Acinetobacter baumannii 872842. It is filed as cell-based. Conditions: 872842. In a few lines:
as §1

Data set [6] relates to Escherichia coli ATCC 25922. Format: cell-based. Conditions: ATCC 25922. In a few lines:
as §1

Data set [7] concerns Pseudomonas aeruginosa ATCC 27853. It is filed as cell-based. Particulars: ATCC 27853. An outline of the steps:
as §1

Data set [8] deals with human red blood cells (hRBC). The data set can be described thus: Hemolysis. It is filed as cell-based. Particulars: red cells of human, 1 h, 200. An outline of the steps:
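Percent lysis of human red cells was derived from OD540 of the supernatant, referenced to 2% Triton X-100, after a 1 h, 37° C incubation of 20% (v/v) cells with 200 μg/mL peptide.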

For a further data set, the system named is male ICR mice. Briefly: Tolerability in a mouse model (Maximum Tolerated Dose assay). Format: in vivo. Particulars: groups of 3. In a few lines: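 Peptides in 0.9% NaCl (pH 6.5-7.6) given s.c. at 30 or 40 mg/kg, twice 12 h apart, to groups of 3 male ICR mice (23±3 g). Acute toxic signs (mortality, convulsions, tremors, sedation) and autonomic effects (diarrhea, salivation, piloerection) observed for 30 min after each dose.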

The mark [9] stands for this setting: 2 × 30 mg/kg s.c. at a 12-hr interval.

With `CC(C)C[C@@H]1NC(=O)[C@@H](CC(C)C)NC(=O)[C@H](CCN)NC(=O)[C@@H](NC(=O)[C@H](CN)NC(=O)[C@@H](NC(=O)[C@H](CCN)NC(=O)CC[C@H]2NC(=O)[C@H](CCCN)NC(=O)[C@H](CCN)NC(=O)[C@H](Cc3ccc(O)cc3)NC(=O)[C@@H](NC(=O)[C@@H](O)C(C)C)CSSC[C@@H](C(=O)N[C@H](C(N)=O)[C@@H](C)O)NC(=O)[C@H](C(C)(C)C)NC(=O)[C@H](CO)NC(=O)[C@H](Cc3c[nH]c4ccccc34)NC(=O)[C@H]([C@@H](C)O)NC2=O)[C@@H](C)O)CCNC(=O)[C@H]([C@@H](C)O)NC(=O)[C@H](CCN)NC(=O)[C@H](CCN)NC1=O` [Ex. 161] (I: H-[Hiv]CY[Dab][Orn][dE]TWS[Tle]CT-NH2 / II: [Dab]T[Dap][Dab][Dab][dL]L[Dab][Dab]T; disulfide I:2-I:11; amide I:6-II:N; lactam II:4-II:C), the MIC is 0.5 µg/mL (≈ 0.207 µM) against Escherichia coli 926415; 1 µg/mL (≈ 0.414 µM) in [1]; 0.125 µg/mL (≈ 0.0518 µM) in data set [2]; 0.25 µg/mL (≈ 0.104 µM) in [3]; 0.125 µg/mL (≈ 0.0518 µM) in data set [4]; 0.25 µg/mL (≈ 0.104 µM) in [5]. Moreover, the MIC was determined as 0.125 µg/mL (≈ 0.0518 µM) in data set [6] and 0.25 µg/mL (≈ 0.104 µM) in data set [7]. The “Hemolysis at 200 μg/mL” value in data set [8] stood at 1%. Further, the Mortality and dose with male ICR mice (setting [9]) is on record as 0/3 died at 2 × 30 mg/kg.
As for `CC(C)C[C@@H]1NC(=O)[C@@H](CC(C)C)NC(=O)[C@H](CCN)NC(=O)[C@@H](NC(=O)[C@H](CCN)NC(=O)[C@@H](NC(=O)[C@H](CCN)NC(=O)CC[C@@H]2NC(=O)[C@@H](NC(=O)[C@H](Cc3ccc(O)cc3)NC(=O)[C@@H](NC(=O)[C@@H](O)C(C)C)[C@@H](C)O)CSSC[C@@H](C(=O)N[C@H](C(=O)N[C@@H](C)C(=O)N[C@H](CO)[C@@H](C)O)C(C)(C)C)NC(=O)[C@H](Cc3c[nH]c4ccccc34)NC(=O)[C@H]([C@@H](C)O)NC(=O)[C@@H](CCN)NC2=O)[C@@H](C)O)CCNC(=O)[C@H]([C@@H](C)O)NC(=O)[C@H](CCN)NC(=O)[C@H](CCN)NC1=O` [Ex. 188] (I: H-[Hiv]TYCE[dDab]TWC[Tle]A[Thr(ol)] / II: [Dab]T[Dab][Dab][Dab][dL]L[Dab][Dab]T; disulfide I:4-I:9; amide I:5-II:N; lactam II:4-II:C), the MIC turned out to be 0.5 µg/mL (≈ 0.21 µM) in the data set with Escherichia coli 926415; 0.5 µg/mL (≈ 0.21 µM) in [1]; 0.25 µg/mL (≈ 0.105 µM) in data set [2]; 1 µg/mL (≈ 0.419 µM) in data set [3]; 0.125 µg/mL (≈ 0.0524 µM) in [4]; 0.5 µg/mL (≈ 0.21 µM) in [5]. The MIC in data set [6] was 0.0625 µg/mL (≈ 0.0262 µM); in data set [7], 0.5 µg/mL (≈ 0.21 µM). Further, in [8], the “Hemolysis at 200 μg/mL” value was less than 1%. For the same compound, the Mortality and dose in the data set with male ICR mice (setting [9]) is listed as 0/3 died at 2 × 30 mg/kg.
As to `CC[C@@H]1NC(=O)[C@@H](CC(C)C)NC(=O)[C@H](CCN)NC(=O)[C@@H](NC(=O)[C@H](CN)NC(=O)[C@@H](NC(=O)[C@H](CCN)NC(=O)CC[C@@H]2NC(=O)[C@H](CCN)NC(=O)[C@H](Cc3ccc(O)cc3)NC(=O)[C@@H](NC(=O)[C@@H](O)C(C)C)CSSC[C@@H](C(=O)N[C@@H](CO)C(=O)N[C@H](CO)C(N)=O)NC(=O)[C@H]([C@@H](C)CC)NC(=O)[C@H](CO)NC(=O)[C@H](Cc3c[nH]c4ccccc34)NC(=O)CNC(=O)[C@@H](CCN)NC2=O)[C@@H](C)O)CCNC(=O)[C@H]([C@@H](C)O)NC(=O)[C@H](CCN)NC(=O)[C@H](CCN)NC1=O` [Ex. 376] (I: H-[Hiv]CY[Dab]E[dDab]GWSICS[dS]-NH2 / II: [Dab]T[Dap][Dab][Dab][dL][Abu][Dab][Dab]T; disulfide I:2-I:11; amide I:5-II:N; lactam II:4-II:C), the MIC in the data set with Escherichia coli 926415 amounted to 0.25 µg/mL (≈ 0.104 µM); in data set [1], 0.0625 µg/mL (≈ 0.026 µM); in data set [3], 0.5 µg/mL (≈ 0.208 µM); in data set [5], 0.25 µg/mL (≈ 0.104 µM). The “Klebsiella pneumoniae SSI #3010 MIC” value in data set [2] stood at 0.0625 µg/mL. In [4], the “Acinetobacter baumannii DSM 30008 MIC” value stood at 0.0625 µg/mL. Also, in [6], the “Escherichia coli ATCC 25922 MIC” value is 0.0625 µg/mL. The “Pseudomonas aeruginosa ATCC 27853 MIC” value in data set [7] stood at 0.125 µg/mL. Further, the “Hemolysis at 200 μg/mL” value in data set [8] is less than 1%. The Mortality and dose in the data set with male ICR mice (2 × 40 mg/kg s.c. at a 12-hr interval) is on record as 0/3 died at 2 × 40 mg/kg.
Consider `CC[C@@H]1NC(=O)[C@@H](CC(C)C)NC(=O)[C@H](CCN)NC(=O)[C@@H](NC(=O)[C@H](CN)NC(=O)[C@@H](NC(=O)[C@H](CCN)NC(=O)CC[C@@H]2NC(=O)[C@H]([C@@H](C)O)NC(=O)[C@H](Cc3ccc(O)cc3)NC(=O)[C@@H](NC(=O)[C@@H](NC(C)=O)C(C)C)CSSC[C@@H](C(=O)N[C@@H](CO)C(N)=O)NC(=O)[C@H]([C@@H](C)CC)NC(=O)[C@H](CO)NC(=O)[C@H](Cc3c[nH]c4ccccc34)NC(=O)[C@H](CCN)NC(=O)[C@@H](CCN)NC2=O)[C@@H](C)O)CCNC(=O)[C@H]([C@@H](C)O)NC(=O)[C@H](CCN)NC(=O)[C@H](CCN)NC1=O` [Ex. 258] (I: Ac-VCYTE[dDab][Dab]WSICS-NH2 / II: [Dab]T[Dap][Dab][Dab][dL][Abu][Dab][Dab]T; disulfide I:2-I:11; amide I:5-II:N; lactam II:4-II:C), for which the MIC came out at 0.25 µg/mL (≈ 0.104 µM) with Escherichia coli 926415; 0.0625 µg/mL (≈ 0.0261 µM) in [1]; 0.03125 µg/mL (≈ 0.013 µM) in data set [2]; 0.125 µg/mL (≈ 0.0521 µM) in [3]; 0.03125 µg/mL (≈ 0.013 µM) in data set [4]; 0.03125 µg/mL (≈ 0.013 µM) in [5]. Moreover, the MIC in [6] and in [7] was 0.0625 µg/mL (≈ 0.0261 µM) throughout. For the same compound, the “Hemolysis at 200 μg/mL” value in data set [8] came out at 2%. In addition, the Mortality and dose in the data set with male ICR mice (setting [9]) is given as 0/3 died at 2 × 30 mg/kg.
On to `CC(=O)N[C@H](C(=O)N[C@H](C(=O)N[C@@H](Cc1ccc(O)cc1)C(=O)N[C@H]1CSSC[C@@H](C(=O)N[C@H](C(=O)N[C@@H](C)C(=O)N[C@H](C(N)=O)[C@@H](C)O)C(C)C)NC(=O)[C@H](Cc2c[nH]c3ccccc23)NC(=O)[C@H](CO)NC(=O)[C@@H](CCN)NC(=O)[C@H](CCC(=O)N[C@@H](CCN)C(=O)N[C@H](C(=O)N[C@@H](CN)C(=O)N[C@H]2CCNC(=O)[C@H]([C@@H](C)O)NC(=O)[C@H](CCN)NC(=O)[C@H](CCN)NC(=O)[C@H](CC(C)C)NC(=O)[C@@H](CC(C)C)NC(=O)[C@H](CCN)NC2=O)[C@@H](C)O)NC1=O)[C@@H](C)O)C(C)C` [Ex. 219] (I: Ac-VTYCE[dDab]SWCVAT-NH2 / II: [Dab]T[Dap][Dab][Dab][dL]L[Dab][Dab]T; disulfide I:4-I:9; amide I:5-II:N; lactam II:4-II:C), for which the MIC in the data set with Escherichia coli 926415 stood at 0.25 µg/mL (≈ 0.104 µM); in data set [1], 0.125 µg/mL (≈ 0.0521 µM); in [2] it was 0.0625 µg/mL (≈ 0.0261 µM); in [3] it was 0.5 µg/mL (≈ 0.209 µM); in [4], 0.03125 µg/mL (≈ 0.013 µM); in data set [5] it was 0.125 µg/mL (≈ 0.0521 µM). The MIC in data set [6] worked out at 0.03125 µg/mL (≈ 0.013 µM); in [7] it was 0.125 µg/mL (≈ 0.0521 µM). Also, the “Hemolysis at 200 μg/mL” value in data set [8] is listed as less than 1%. Also, in the data set with male ICR mice (setting [9]), the Mortality and dose was 0/3 died at 2 × 30 mg/kg.
